Test results from patent US20240270762A1, “PENICILLIN-BINDING PROTEIN INHIBITORS” (priority 2021, published 2024).
≈ marks a conversion by molar mass, not a printed value.

Key:
[1] = tested on: N. gonorrhoeae WHO L; assay: Liquid broth MIC in Fastidious broth; details: Neisseria gonorrhoeae, read-out: Minimum Inhibitory Concentration (MIC), N. gonorrhoeae WHO L
[2] = tested on: P. aeruginosa ATCC 35151; assay: microbe, parasite or virus in culture; type: cell-based; details: Pseudomonas aeruginosa, ATCC35151, read-out: Minimum inhibitory concentration, P. aeruginosa ATCC 35151
[3] = tested on: B. thailandensis ATCC 700388; assay: microbe, parasite or virus in culture; type: cell-based; details: Burkholderia thailandensis, ATCC700388, read-out: Minimum inhibitory concentration (MIC), B. thailandensis ATCC 700388
[4] = tested on: A. baumannii 1258916; assay: microbe, parasite or virus in culture; type: cell-based, Acinetobacter baumannii; details: Acinetobacter baumannii, 1258916, read-out: MIC, A. baumannii 1258916
[5] = tested on: N. gonorrhoeae CDC-0197; assay: Liquid broth MIC in Fastidious broth; details: Neisseria gonorrhoeae, CDC0197, read-out: Minimum Inhibitory Concentration (MIC), N. gonorrhoeae CDC-0197
[6] = target: T1, PBP3 from Acinetobacter baumannii (ATCC 19606) (Acinetobacter baumannii, UniProt A0ABX6CK25); assay: Bocillin-FL fluorescence polarization competition binding, A. baumannii PBP3; details: fluorescence polarization competition binding assay using Bocillin-FL; read-out: A. baumannii PBP3 Potency
T1 sequence (A0ABX6CK25 64-610): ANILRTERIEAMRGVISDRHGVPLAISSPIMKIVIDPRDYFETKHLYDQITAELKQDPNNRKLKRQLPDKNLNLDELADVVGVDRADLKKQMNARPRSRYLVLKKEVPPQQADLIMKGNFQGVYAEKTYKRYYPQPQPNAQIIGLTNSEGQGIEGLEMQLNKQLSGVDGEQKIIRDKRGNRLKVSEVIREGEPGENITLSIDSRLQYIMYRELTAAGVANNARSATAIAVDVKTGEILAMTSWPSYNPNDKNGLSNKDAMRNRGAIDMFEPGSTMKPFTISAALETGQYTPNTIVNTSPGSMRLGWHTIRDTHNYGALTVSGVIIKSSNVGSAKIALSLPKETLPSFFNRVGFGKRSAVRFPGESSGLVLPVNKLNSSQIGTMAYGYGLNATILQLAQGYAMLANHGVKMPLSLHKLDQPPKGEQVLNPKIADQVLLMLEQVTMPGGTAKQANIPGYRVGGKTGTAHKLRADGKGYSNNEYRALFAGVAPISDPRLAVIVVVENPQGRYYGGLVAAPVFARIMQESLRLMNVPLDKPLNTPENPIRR
Summary of the method: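 Purified PBPs pre-incubated with inhibitor (E. coli PBP3 1.5 μM, 30 min; P. aeruginosa PBP3 0.75 μM, A. baumannii PBP1a 1 μM and PBP3 0.2 μM, 15 min), then Bocillin-FL 0.1 μM (0.05 μM for PBP1a) added; FP read up to 60 min. EC50 = concentration halving bound Bocillin-FL.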

[7] = tested on: P. aeruginosa CDC-0095; assay: microbe, parasite or virus in culture; type: cell-based; details: Pseudomonas aeruginosa, CDC0095, read-out: Minimum inhibitory concentration, P. aeruginosa CDC-0095
[8] = tested on: N. gonorrhoeae MS11; assay: Liquid broth MIC in Fastidious broth; details: Neisseria gonorrhoeae, MS11, read-out: Minimum Inhibitory Concentration (MIC), N. gonorrhoeae MS11
[9] = tested on: N. gonorrhoeae WHO Q; assay: Liquid broth MIC in Fastidious broth; details: Neisseria gonorrhoeae, read-out: Minimum Inhibitory Concentration (MIC), N. gonorrhoeae WHO Q
[10] = tested on: A. baumannii CDC-0045; assay: microbe, parasite or virus in culture; type: cell-based; details: Acinetobacter baumannii, CDC0045, read-out: MIC, A. baumannii CDC-0045

Structure (SMILES) | MIC [1] [µg/mL] | MIC [2] [µg/mL] | MIC [3] [µg/mL] | MIC [4] [µg/mL] | MIC [5] [µg/mL] | IC50 [6] [µM] | MIC [7] [µg/mL] | MIC [8] [µg/mL] | MIC [9] [µg/mL] | MIC [10] [µg/mL]
O=C(NCCN1CCN(C(=O)NC(C(=O)N[C@H]2Cc3ccc(F)c(C(=O)O)c3OB2O)c2cc(F)c(O)c(O)c2Cl)C(=O)C1=O)c1ccccc1 (stereo partly drawn) [Example 207, (3R)-3-(2-(4-(2-benzamidoethyl)-2,3-dioxopiperazine-1-carboxamido)-2-(2-chloro-5-fluoro-3,4-dihydroxyphenyl)acetamido)-7-fluoro-2-hydroxy-3,4-dihydro-2H-benzo[e][1,2]oxaborinine-8-carboxylic acid] | > 64 | < 1 | 8 to 16 (≈ 11 to 21.9 µM) | 2 to 4 (≈ 2.74 to 5.48 µM) | 16 to 32 (≈ 21.9 to 43.8 µM) | < 10 | 2 to 4 (≈ 2.74 to 5.48 µM) | 16 to 32 (≈ 21.9 to 43.8 µM) | 16 to 32 (≈ 21.9 to 43.8 µM) | 2 to 4 (≈ 2.74 to 5.48 µM)
CN(CCN1CCN(C(=O)N[C@@H](C(=O)N[C@H]2Cc3ccc(F)c(C(=O)O)c3OB2O)c2cc(F)c(O)c(O)c2Cl)C(=O)C1=O)Cc1cncc(O)c1 [Example 208, (R)-3-((R)-2-(2-chloro-5-fluoro-3,4-dihydroxyphenyl)-2-(4-(2-(((5-hydroxypyridin-3-yl)methyl)(methyl)amino)ethyl)-2,3-dioxopiperazine-1-carboxamido)acetamido)-7-fluoro-2-hydroxy-3,4-dihydro-2H-benzo[e][1,2]oxaborinine-8-carboxylic acid] | > 64 | < 1 | < 1 | < 1 | 16 to 32 (≈ 21.4 to 42.8 µM) | < 10 | < 1 | 4 to 8 (≈ 5.36 to 10.7 µM) | 16 to 32 (≈ 21.4 to 42.8 µM) | < 1
CN(CCN1CCN(C(=O)N[C@@H](C(=O)N[C@H]2Cc3ccc(F)c(C(=O)O)c3OB2O)c2cc(F)c(O)c(O)c2Cl)C(=O)C1=O)Cc1ccc(N)nc1 [Example 209, (R)-3-((R)-2-(4-(2-(((6-aminopyridin-3-yl)methyl)(methyl)amino)ethyl)-2,3-dioxopiperazine-1-carboxamido)-2-(2-chloro-5-fluoro-3,4-dihydroxyphenyl)acetamido)-7-fluoro-2-hydroxy-3,4-dihydro-2H-benzo[e][1,2]oxaborinine-8-carboxylic acid] | > 64 | < 1 | < 1 | < 1 | 16 to 32 (≈ 21.5 to 42.9 µM) | < 10 | < 1 | 4 to 8 (≈ 5.36 to 10.7 µM) | 16 to 32 (≈ 21.5 to 42.9 µM) | < 1
O=C(NCCCN1CCN(C(=O)N[C@@H](C(=O)N[C@H]2Cc3ccc(F)c(C(=O)O)c3OB2O)c2cc(F)c(O)c(O)c2Cl)C(=O)C1=O)c1cccnc1 [Example 210, (R)-3-((R)-2-(2-chloro-5-fluoro-3,4-dihydroxyphenyl)-2-(4-(3-(nicotinamido)propyl)-2,3-dioxopiperazine-1-carboxamido)acetamido)-7-fluoro-2-hydroxy-3,4-dihydro-2H-benzo[e][1,2]oxaborinine-8-carboxylic acid] | > 64 | < 1 | < 1 | < 1 | > 64 | < 10 | < 1 | 16 to 32 (≈ 21.5 to 43 µM) | > 64 | < 1
O=C(NCCCN1CCN(C(=O)NC(C(=O)N[C@H]2Cc3ccc(F)c(C(=O)O)c3OB2O)c2cc(F)c(O)c(O)c2Cl)C(=O)C1=O)c1nccs1 (stereo partly drawn) [Example 211, (3R)-3-(2-(2-chloro-5-fluoro-3,4-dihydroxyphenyl)-2-(2,3-dioxo-4-(3-(thiazole-2-carboxamido)propyl)piperazine-1-carboxamido)acetamido)-7-fluoro-2-hydroxy-3,4-dihydro-2H-benzo[e][1,2]oxaborinine-8-carboxylic acid] | > 64 | < 1 | 2 to 4 (≈ 2.66 to 5.33 µM) | < 1 | 16 to 32 (≈ 21.3 to 42.6 µM) | < 10 | 2 to 4 (≈ 2.66 to 5.33 µM) | 16 to 32 (≈ 21.3 to 42.6 µM) | > 64 | < 1
O=C(O)c1c(F)ccc2c1OB(O)[C@@H](NC(=O)C(NC(=O)N1CCN(CCCNC(=O)[C@@H]3CCCN3)C(=O)C1=O)c1cc(F)c(O)c(O)c1Cl)C2 (stereo partly drawn) [Example 212, (3R)-3-(2-(2-chloro-5-fluoro-3,4-dihydroxyphenyl)-2-(2,3-dioxo-4-(3-((S)-pyrrolidine-2-carboxamido)propyl)piperazine-1-carboxamido)acetamido)-7-fluoro-2-hydroxy-3,4-dihydro-2H-benzo[e][1,2]oxaborinine-8-carboxylic acid] | > 64 | < 1 | 2 to 4 (≈ 2.71 to 5.43 µM) | 2 to 4 (≈ 2.71 to 5.43 µM) | 16 to 32 (≈ 21.7 to 43.4 µM) | < 10 | 2 to 4 (≈ 2.71 to 5.43 µM) | 16 to 32 (≈ 21.7 to 43.4 µM) | > 64 | 2 to 4 (≈ 2.71 to 5.43 µM)
O=C(NCCCN1CCN(C(=O)NC(C(=O)N[C@H]2Cc3ccc(F)c(C(=O)O)c3OB2O)c2cc(F)c(O)c(O)c2Cl)C(=O)C1=O)Nc1cccnc1 (stereo partly drawn) [Example 213, (3R)-3-(2-(2-chloro-5-fluoro-3,4-dihydroxyphenyl)-2-(2,3-dioxo-4-(3-(3-(pyridin-3-yl)ureido)propyl)piperazine-1-carboxamido)acetamido)-7-fluoro-2-hydroxy-3,4-dihydro-2H-benzo[e][1,2]oxaborinine-8-carboxylic acid] | > 64 | < 1 | 2 to 4 (≈ 2.63 to 5.26 µM) | < 1 | > 64 | < 10 | < 1 | 16 to 32 (≈ 21.1 to 42.1 µM) | > 64 | 2 to 4 (≈ 2.63 to 5.26 µM)
O=C(NCCN1CCN(C(=O)NC(C(=O)N[C@H]2Cc3ccc(F)c(C(=O)O)c3OB2O)c2cc(F)c(O)c(O)c2Cl)C(=O)C1=O)c1ccc(O)cc1 (stereo partly drawn) [Example 214, (3R)-3-(2-(2-chloro-5-fluoro-3,4-dihydroxyphenyl)-2-(4-(2-(4-hydroxybenzamido)ethyl)-2,3-dioxopiperazine-1-carboxamido)acetamido)-7-fluoro-2-hydroxy-3,4-dihydro-2H-benzo[e][1,2]oxaborinine-8-carboxylic acid] | > 64 | < 1 | 8 to 16 (≈ 10.7 to 21.5 µM) | 2 to 4 (≈ 2.68 to 5.36 µM) | 16 to 32 (≈ 21.5 to 42.9 µM) | < 10 | 2 to 4 (≈ 2.68 to 5.36 µM) | 16 to 32 (≈ 21.5 to 42.9 µM) | > 64 | 2 to 4 (≈ 2.68 to 5.36 µM)
O=C(NCCN1CCN(C(=O)NC(C(=O)N[C@H]2Cc3ccc(F)c(C(=O)O)c3OB2O)c2cc(F)c(O)c(O)c2Cl)C(=O)C1=O)c1cccc(O)c1 (stereo partly drawn) [Example 215, (3R)-3-(2-(2-chloro-5-fluoro-3,4-dihydroxyphenyl)-2-(4-(2-(3-hydroxybenzamido)ethyl)-2,3-dioxopiperazine-1-carboxamido)acetamido)-7-fluoro-2-hydroxy-3,4-dihydro-2H-benzo[e][1,2]oxaborinine-8-carboxylic acid] | > 64 | < 1 | 8 to 16 (≈ 10.7 to 21.5 µM) | 2 to 4 (≈ 2.68 to 5.36 µM) | 16 to 32 (≈ 21.5 to 42.9 µM) | < 10 | 2 to 4 (≈ 2.68 to 5.36 µM) | 16 to 32 (≈ 21.5 to 42.9 µM) | > 64 | 8 to 16 (≈ 10.7 to 21.5 µM)
O=C(NCCN1CCN(C(=O)NC(C(=O)N[C@H]2Cc3ccc(F)c(C(=O)O)c3OB2O)c2cc(F)c(O)c(O)c2Cl)C(=O)C1=O)c1ccncc1 (stereo partly drawn) [Example 216, (3R)-3-(2-(2-chloro-5-fluoro-3,4-dihydroxyphenyl)-2-(4-(2-(isonicotinamido)ethyl)-2,3-dioxopiperazine-1-carboxamido)acetamido)-7-fluoro-2-hydroxy-3,4-dihydro-2H-benzo[e][1,2]oxaborinine-8-carboxylic acid] | > 64 | < 1 | 2 to 4 (≈ 2.74 to 5.47 µM) | 2 to 4 (≈ 2.74 to 5.47 µM) | 16 to 32 (≈ 21.9 to 43.8 µM) | < 10 | 8 to 16 (≈ 10.9 to 21.9 µM) | 16 to 32 (≈ 21.9 to 43.8 µM) | 16 to 32 (≈ 21.9 to 43.8 µM) | 2 to 4 (≈ 2.74 to 5.47 µM)
